Results as given in patent US20230242494A1, “MALONITRILE DERIVATIVES” (Hoffmann-La Roche Inc., priority 2020, published 2023).

The molecules below were run against T1, human cGAS (residues 161-522) (Homo sapiens, UniProt Q8N884) (assay: cGAS Activity Assay—Malachite Green). Details: recombinant purified human cGAS 25 nM; 80 μM ATP, 80 μM GTP, 100 nM ISD; 4 hour at RT; phosphate detection by Malachite Green.
T1 construct: human cGAS (residues 161-522); made in house
Assay type: biochemical
Description: Compounds were tested for cGAS inhibition in a coupled enzymatic assay based on Phosphate detection by Malachite Green. Final assay conditions were 20 mM TRIS pH 7.5 (Applichem), 5 mM MgCl2 (Sigma) and 0.01% BSA (Sigma) supplemented with 80 μM ATP (Sigma), 80 μM GTP (Sigma) and 100 nM Interferon Stimulating DNA (ISD) (Microsynth). Recombinantly expressed purified human cGAS (residues 161-522) was used at 25 nM.
All compounds were prepared as 10 mM stock solutions in DMSO and a 16 pt dilution series in DMSO with a dilution factor of 2.5 was prepared. 1 μL of DMSO dilution series was transferred to 32.3 μL reaction buffer, mixed by pipetting up/down, spun for 1 minute at 3000 rpm and was visually inspected for precipitation. 5 μL of 3-fold enzyme stock solution were transferred to an empty 384-well Black/Clear Flat Bottom Polystyrene NBS (Corning) rows 3-24. Rows 1-2 were filled with assay buffer. Plates were spun 10 seconds at 1000 rpm (164×g). 5 μL of compound intermediate dilution was added and mixed by pipetting up/down to rows 3-24. Rows 1-2 were filled with 3.1% DMSO assay buffer. Plates were spun 10 seconds at 1000 rpm (164×g). 5 μL 3-fold Nucleotide/DNA mix was added to all wells to start the reaction. Plates were spun 10 seconds at 1000 rpm (164×g) and incubated for 4 hour at room temperature (RT) in the dark. 5 μL 4 U/ml PPase (Sigma) were added to all wells. Plates spun 10 seconds at 1000 rpm (164×g). 10 μL BioMol green Solution (Enzo Life Sciences) was added to all wells. Plates spun 10 seconds at 1000 rpm (164×g) and incubated 30 minutes at RT in the dark. Absorbance data was collected 620 nm on an EnVision Multilable Reader (Perkin Elmer) and the following measurement settings were used: excitation filter photometric was 620 nm; excitation from the top; measurement height was 1 mm; number of flashes was 30; number of flashes integrated was 1.
All plates are checked for abnormalities and outliers in the Blank Control (no protein, row 1) and the Neutral Control (no compound, row 2) are excluded using the 3*SD rule. Data was normalized to 0 and 100% by Blank and Neutral Control and each curve was fitted and judged using the 4 parameter logistic equation to determine the IC50 for cGAS inhibition.
Table 13 provides IC50 values (μM) for cGAS inhibition obtained for particular examples of the present invention as measured by the above-described assay.

T1 sequence (Q8N884 161-522): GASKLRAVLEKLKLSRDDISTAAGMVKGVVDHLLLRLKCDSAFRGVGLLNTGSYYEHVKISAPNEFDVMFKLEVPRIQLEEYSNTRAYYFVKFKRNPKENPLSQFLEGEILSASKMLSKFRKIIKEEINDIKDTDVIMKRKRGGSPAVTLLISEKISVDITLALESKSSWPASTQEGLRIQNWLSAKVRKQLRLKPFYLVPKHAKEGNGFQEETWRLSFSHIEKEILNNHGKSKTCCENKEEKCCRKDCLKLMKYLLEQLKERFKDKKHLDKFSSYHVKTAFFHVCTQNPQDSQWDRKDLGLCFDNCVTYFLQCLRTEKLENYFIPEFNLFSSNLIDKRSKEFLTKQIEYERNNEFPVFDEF

| Structure (SMILES) | IC50 |
| --- | --- |
| Cc1oncc1/C(O)=C(\C#N)C(=O)Nc1ccc(C(=O)N(C)C)cc1 [Example 35, 4-[[(Z)-2-cyano-3-hydroxy-3-(5-methylisoxazol-4-yl)prop-2-enoyl]amino]-N,N-dimethyl-benzamide] | 710 nM |
| CNC(=O)c1ccc(NC(=O)/C(C#N)=C(\O)c2cnoc2C)cc1 [Example 36, 4-[[(Z)-2-cyano-3-hydroxy-3-(5-methylisoxazol-4-yl)prop-2-enoyl]amino]-N-methyl-benzamide] | 370 nM |
| COc1ccc(NC(=O)/C(C#N)=C(\O)c2cnoc2C)nc1 [Example 37, (Z)-2-cyano-3-hydroxy-N-(5-methoxy-2-pyridyl)-3-(5-methylisoxazol-4-yl)prop-2-enamide] | 420 nM |
| Cc1oncc1/C(O)=C(\C#N)C(=O)Nc1ccc(C(=O)c2ccccc2)cc1 [Example 38, (Z)-N-(4-benzoylphenyl)-2-cyano-3-hydroxy-3-(5-methylisoxazol-4-yl)prop-2-enamide] | 1160 nM |
| COc1ccc(S(=O)(=O)c2ccc(NC(=O)/C(C#N)=C(\O)c3cnoc3C)cc2)cc1 [Example 39, (Z)-2-cyano-3-hydroxy-N-(4-((4-methoxyphenyl)sulfonyl)phenyl)-3-(5-methylisoxazol-4-yl)acrylamide] | 490 nM |
| Cc1oncc1/C(O)=C(\C#N)C(=O)Nc1ccc(S(=O)(=O)Nc2nccs2)cc1 [Example 40, (Z)-2-cyano-3-hydroxy-3-(5-methylisoxazol-4-yl)-N-[4-(thiazol-2-ylsulfamoyl)phenyl]prop-2-enamide] | 140 nM |
| Cc1oncc1/C(O)=C(\C#N)C(=O)Nc1ccc(OC2COC2)cc1 [Example 41, (Z)-2-cyano-3-hydroxy-3-(5-methylisoxazol-4-yl)-N-[4-(oxetan-3-yloxy)phenyl]prop-2-enamide] | 1290 nM |
| CC(=O)Nc1ccc(NC(=O)/C(C#N)=C(\O)c2cnoc2C)cc1 [Example 42, (Z)-N-(4-acetamidophenyl)-2-cyano-3-hydroxy-3-(5-methylisoxazol-4-yl)prop-2-enamide] | 270 nM |
| Cc1nnc(NS(=O)(=O)c2ccc(NC(=O)/C(C#N)=C(\O)c3cnoc3C)cc2)s1 [Example 43, (Z)-2-cyano-3-hydroxy-3-(5-methylisoxazol-4-yl)-N-[4-[(5-methyl-1,3,4-thiadiazol-2-yl)sulfamoyl]phenyl]prop-2-enamide] | 210 nM |
| Cc1oncc1/C(O)=C(\C#N)C(=O)Nc1ccc(C(N)=O)cc1 [Example 44, 4-[[(Z)-2-cyano-3-hydroxy-3-(5-methylisoxazol-4-yl)prop-2-enoyl]amino]benzamide] | 240 nM |
| Cc1oncc1/C(O)=C(\C#N)C(=O)Nc1ccc(S(=O)(=O)Nc2ncccn2)cc1 [Example 45, (Z)-2-cyano-3-hydroxy-3-(5-methylisoxazol-4-yl)-N-[4-(pyrimidin-2-ylsulfamoyl)phenyl]prop-2-enamide] | 90 nM |
| COc1cnc(NC(=O)/C(C#N)=C(\O)c2cnoc2C)nc1 [Example 46, (Z)-2-cyano-3-hydroxy-N-(5-methoxypyrimidin-2-yl)-3-(5-methylisoxazol-4-yl)prop-2-enamide] | 70 nM |
| Cc1oncc1/C(O)=C(\C#N)C(=O)Nc1ccc(S(=O)(=O)N2CCOCC2)cc1 [Example 47, (Z)-2-cyano-3-hydroxy-3-(5-methylisoxazol-4-yl)-N-(4-(morpholinosulfonyl)phenyl)acrylamide] | 200 nM |
| CCCNS(=O)(=O)c1ccc(NC(=O)/C(C#N)=C(\O)c2cnoc2C)cc1 [Example 48, (Z)-2-cyano-3-hydroxy-3-(5-methylisoxazol-4-yl)-N-(4-(N-propylsulfamoyl)phenyl) acrylamide] | 100 nM |
| Cc1oncc1/C(O)=C(\C#N)C(=O)Nc1cccc(S(=O)(=O)c2ccccc2)c1 [Example 49, (Z)-2-cyano-3-hydroxy-3-(5-methylisoxazol-4-yl)-N-(3-(phenylsulfonyl)phenyl) acrylamide] | 2500 nM |
| Cc1cc(C(F)(F)F)ccc1NC(=O)/C(C#N)=C(\O)c1cnoc1C [Example 50, (Z)-2-cyano-3-hydroxy-N-(2-methyl-4-(trifluoromethyl)phenyl)-3-(5-methylisoxazol-4-yl)acrylamide] | 1050 nM |
| Cc1oncc1/C(O)=C(\C#N)C(=O)Nc1cccc(-c2ccccc2)c1 [Example 51, (Z)-2-cyano-3-hydroxy-3-(5-methylisoxazol-4-yl)-N-(3-phenylphenyl) prop-2-enamide] | 1990 nM |
| Cc1oncc1/C(O)=C(\C#N)C(=O)Nc1cccc(Oc2ccccc2)c1 [Example 52, (Z)-2-cyano-3-hydroxy-3-(5-methylisoxazol-4-yl)-N-(3-phenoxyphenyl)acrylamide] | 1740 nM |
| CCN(CC)C(=O)CNS(=O)(=O)c1ccc(NC(=O)/C(C#N)=C(\O)c2cnoc2C)cc1 [Example 53, (Z)-2-cyano-N-(4-(N-(2-(diethylamino)-2-oxoethyl)sulfamoyl)phenyl)-3-hydroxy-3-(5-methylisoxazol-4-yl)acrylamide] | 300 nM |

Other lines, results leading:

| IC50 | Structure (SMILES) |
| --- | --- |
| 220 nM | Cc1oncc1/C(O)=C(\C#N)C(=O)Nc1ccc(S(=O)(=O)Nc2ccccc2)cc1 [Example 54, (Z)-2-cyano-3-hydroxy-3-(5-methylisoxazol-4-yl)-N-(4-(N-phenylsulfamoyl)phenyl) acrylamide] |
| 2020 nM | Cc1oncc1/C(O)=C(\C#N)C(=O)Nc1ccc(Sc2ccccc2)cc1 [Example 55, (Z)-2-cyano-3-hydroxy-3-(5-methylisoxazol-4-yl)-N-(4-(phenylthio)phenyl) acrylamide] |
| 740 nM | Cc1oncc1/C(O)=C(\C#N)C(=O)Nc1ccc(C(F)(F)F)cc1Cl [Example 56, (Z)-N-(2-chloro-4-(trifluoromethyl)phenyl)-2-cyano-3-hydroxy-3-(5-methylisoxazol-4-yl)acrylamide] |
| 290 nM | Cc1oncc1/C(O)=C(\C#N)C(=O)Nc1ccc(S(=O)(=O)Nc2ccc(C#N)cc2)cc1 [Example 57, (Z)-2-cyano-N-(4-(N-(4-cyanophenyl)sulfamoyl)phenyl)-3-hydroxy-3-(5-methylisoxazol-4-yl)acrylamide] |
| 330 nM | Cc1oncc1C(=O)N(c1ccc(C#N)cc1)S(=O)(=O)c1ccc(NC(=O)/C(C#N)=C(\O)c2cnoc2C)cc1 [Example 58, (Z)-N-((4-(2-cyano-3-hydroxy-3-(5-methylisoxazol-4-yl)acrylamido)phenyl)sulfonyl)-N-(4-cyanophenyl)-5-methylisoxazole-4-carboxamide] |
| 450 nM | Cc1noc(C)c1NS(=O)(=O)c1ccc(NC(=O)/C(C#N)=C(\O)c2cnoc2C)cc1 [Example 59, (Z)-2-cyano-N-(4-(N-(3,5-dimethylisoxazol-4-yl)sulfamoyl)phenyl)-3-hydroxy-3-(5-methylisoxazol-4-yl)acrylamide] |
| 520 nM | Cc1noc(C)c1N(C(=O)c1cnoc1C)S(=O)(=O)c1ccc(NC(=O)/C(C#N)=C(\O)c2cnoc2C)cc1 [Example 60] |
| 110 nM | Cc1oncc1/C(O)=C(\C#N)C(=O)Nc1ccc(S(C)(=O)=O)cc1Cl [Example 61, (Z)-N-(2-chloro-4-methylsulfonyl-phenyl)-2-cyano-3-hydroxy-3-(5-methylisoxazol-4-yl)prop-2-enamide] |
| 1560 nM | Cc1oncc1/C(O)=C(\C#N)C(=O)Nc1ccc(Oc2ccccc2)cc1 [Example 62, (Z)-2-cyano-3-hydroxy-3-(5-methylisoxazol-4-yl)-N-(4-phenoxyphenyl)acrylamide] |
| 3460 nM | Cc1oncc1/C(O)=C(\C#N)C(=O)Nc1ccc(Oc2ccc(Cl)cc2)cc1 [Example 63, (Z)-N-(4-(4-chlorophenoxy)phenyl)-2-cyano-3-hydroxy-3-(5-methylisoxazol-4-yl)acrylamide] |
| 1730 nM | Cc1oncc1/C(O)=C(\C#N)C(=O)Nc1ccc(-c2ccccc2)cc1 [Example 64, (Z)-2-cyano-3-hydroxy-3-(5-methylisoxazol-4-yl)-N-(4-phenylphenyl)-prop-2-enamide] |
| 1670 nM | Cc1oncc1/C(O)=C(\C#N)C(=O)Nc1ccc(C(F)(F)F)c(Cl)c1 [Example 65, (Z)-N-(3-chloro-4-(trifluoromethyl)phenyl)-2-cyano-3-hydroxy-3-(5-methylisoxazol-4-yl)acrylamide] |
| 490 nM | Cc1oncc1/C(O)=C(\C#N)C(=O)Nc1ccc(C(F)(F)F)cn1 [Example 66, (Z)-2-cyano-3-hydroxy-3-(5-methylisoxazol-4-yl)-N-(5-(trifluoromethyl)pyridin-2-yl)acrylamide] |
